Patent publication US20170239323A1, “ORITAVANCIN FORMULATIONS” (The Medicines Company, priority 2016, published 2017)

Experiment: pH adjustment of oritavancin/HPCD solution with 1N NaOH: visual observations
Assay type: physicochemical
Description: Reconstituting Orbactiv 400 mg (Oritavancin) in 20% w/v HPCD, diluting in saline then adjusting pH. The 50 mg/mL solution of oritavancin in 20% w/v HPCD (described in Table 3) was further diluted in 0.9% saline to 6 mg/mL in a small glass vial. The pH was adjusted using 1N NaOH. NaOH was added to the oritavancin solution in […] and vortexed. Visual observations and pH were recorded (Table 5).
Reconstituting Orbactiv 400 mg (Oritavancin) in 50% w/v HPCD aqueous solution, adjusting pH then diluting in saline. 6.269 g of HPCD was dissolved in 12.538 mL of water to make a 50% w/v solution (pH=7.23). Seven (7) mL of the 50% w/v solution was added to a 400 mg vial of Orbactiv for a target oritavancin concentration of 57.14 mg/mL. […] A 2 mL aliquot of 57.14 mg/mL was removed from the vial and placed in a small glass vial. The pH was adjusted to 6.5 using 1N NaOH. NaOH was added to the oritavancin solution in 5 μL increments and vortexed. Visual observations and pH were recorded (Table 6).
(§1) Reconstituting Orbactiv 400 mg (Oritavancin) in 50% w/v aqueous HPCD, adjusting pH then diluting in saline. 6.112 g of HPCD was dissolved in 12.224 mL of water to make a 50% w/v solution (pH=6.74). Seven (7) mL of the 50% w/v HPCD solution was added to a 400 mg vial of Orbactiv for a target oritavancin concentration of 57.14 mg/mL. […] A 3 mL aliquot of 57.14 mg/mL was removed from the vial and placed in a small glass vial. The pH was adjusted to 7 using 1N NaOH. NaOH was added to the oritavancin solution in 5 μL increments and vortexed. Visual observations and pH were recorded (Table 8).
as §1, with “20%” for “50%”, “3.555” for “6.112”, “17.775” for “12.224”, “(pH=6.88).” for “(pH=6.74).”, “recorded.” for “recorded”, “10).” for “8).”

SMILES: CN[C@H](CC(C)C)C(=O)N[C@H]1C(=O)N[C@@H](CC(N)=O)C(=O)N[C@H]2C(=O)N[C@H]3C(=O)N[C@H](C(=O)N[C@H](C(=O)O)c4cc(O)cc(O)c4-c4cc3ccc4O)[C@H](O[C@H]3C[C@](C)(N)[C@@H](O)[C@H](C)O3)c3ccc(c(Cl)c3)Oc3cc2cc(c3O[C@@H]2O[C@H](CO)[C@@H](O)[C@H](O)[C@H]2O[C@H]2C[C@](C)(NCc3ccc(-c4ccc(Cl)cc4)cc3)[C@@H](O)[C@H](C)O2)Oc2ccc(cc2Cl)[C@H]1O [Oritavancin]
- Observations (20% w/v HPCD reconstitution diluted in 0.9% saline, 1N NaOH 0 μL, pH 4.10, oritavancin 6.00 mg/mL): Clear, colorless solution
- Observations (20% w/v HPCD reconstitution diluted in 0.9% saline, 1N NaOH 5 μL, pH 5.33, oritavancin 5.99 mg/mL): Clear, colorless solution
- Observations (20% w/v HPCD reconstitution diluted in 0.9% saline, 1N NaOH 10 μL, pH 6.05, oritavancin 5.97 mg/mL): Clear, colorless solution
- pH at which adjusting with 1N NaOH caused visible precipitation (20% w/v HPCD reconstitution diluted to 6 mg/mL in 0.9% saline): > 6
- Observations (50% w/v HPCD reconstitution (2 mL aliquot), 1N NaOH 0 μL, pH 4.08, oritavancin 57.14 mg/mL): Clear, colorless solution
- Observations (50% w/v HPCD reconstitution (2 mL aliquot), 1N NaOH 5 μL, pH 4.26, oritavancin 57.10 mg/mL): Clear, colorless solution
- Observations (50% w/v HPCD reconstitution (2 mL aliquot), 1N NaOH 10 μL, pH 4.56, oritavancin 57.06 mg/mL): Clear, colorless solution
- Observations (50% w/v HPCD reconstitution (2 mL aliquot), 1N NaOH 15 μL, pH 4.90, oritavancin 57.02 mg/mL): Clear, colorless solution
- Observations (50% w/v HPCD reconstitution (2 mL aliquot), 1N NaOH 20 μL, pH 5.19, oritavancin 56.98 mg/mL): Clear, colorless solution
- Observations (50% w/v HPCD reconstitution (2 mL aliquot), 1N NaOH 25 μL, pH 5.39, oritavancin 56.94 mg/mL): Clear, colorless solution
- Observations (50% w/v HPCD reconstitution (2 mL aliquot), 1N NaOH 30 μL, pH 5.65, oritavancin 56.90 mg/mL): Clear, colorless solution.
- Observations (50% w/v HPCD reconstitution (2 mL aliquot), 1N NaOH 35 μL, pH 5.81, oritavancin 56.86 mg/mL): Clear, colorless solution.
- Observations (50% w/v HPCD reconstitution (2 mL aliquot), 1N NaOH 40 μL, pH 6.10, oritavancin 56.82 mg/mL): Clear, colorless solution.
- Observations (50% w/v HPCD reconstitution (2 mL aliquot), 1N NaOH 45 μL, pH 6.17, oritavancin 56.78 mg/mL): Clear, colorless solution.
- Observations (50% w/v HPCD reconstitution (2 mL aliquot), 1N NaOH 50 μL, pH 6.33, oritavancin 56.74 mg/mL): Clear, colorless solution.
- Observations (50% w/v HPCD reconstitution (3 mL aliquot), 1N NaOH 0 μL, pH 4.05, oritavancin 57.14 mg/mL): Clear, colorless solution.
- Observations (50% w/v HPCD reconstitution (3 mL aliquot), 1N NaOH 5 μL, pH 4.28, oritavancin 57.04 mg/mL): Clear, colorless solution
- Observations (50% w/v HPCD reconstitution (3 mL aliquot), 1N NaOH 10 μL, pH 4.44, oritavancin 56.94 mg/mL): Clear, colorless solution
- Observations (50% w/v HPCD reconstitution (3 mL aliquot), 1N NaOH 15 μL, pH 4.68, oritavancin 56.84 mg/mL): Clear, colorless solution
- Observations (50% w/v HPCD reconstitution (3 mL aliquot), 1N NaOH 20 μL, pH 4.93, oritavancin 56.74 mg/mL): Clear, colorless solution
- Observations (50% w/v HPCD reconstitution (3 mL aliquot), 1N NaOH 25 μL, pH 5.11, oritavancin 56.64 mg/mL): Clear, colorless solution
- Observations (50% w/v HPCD reconstitution (3 mL aliquot), 1N NaOH 30 μL, pH 5.23, oritavancin 56.54 mg/mL): Clear, colorless solution
- Observations (50% w/v HPCD reconstitution (3 mL aliquot), 1N NaOH 35 μL, pH 5.36, oritavancin 56.44 mg/mL): Clear, colorless solution
- Observations (50% w/v HPCD reconstitution (3 mL aliquot), 1N NaOH 40 μL, pH 5.48, oritavancin 56.35 mg/mL): Clear, colorless solution.
- Observations (50% w/v HPCD reconstitution (3 mL aliquot), 1N NaOH 45 μL, pH 5.77, oritavancin 56.24 mg/mL): Clear, colorless solution
- Observations (50% w/v HPCD reconstitution (3 mL aliquot), 1N NaOH 50 μL, pH 5.82, oritavancin 56.14 mg/mL): Clear, colorless solution
- Observations (50% w/v HPCD reconstitution (3 mL aliquot), 1N NaOH 55 μL, pH 5.85, oritavancin 56.03 mg/mL): Clear, colorless solution
- Observations (50% w/v HPCD reconstitution (3 mL aliquot), 1N NaOH 60 μL, pH 5.94, oritavancin 55.93 mg/mL): Clear, colorless solution
- Observations (50% w/v HPCD reconstitution (3 mL aliquot), 1N NaOH 65 μL, pH 6.05, oritavancin 55.83 mg/mL): Clear, colorless solution.
- Observations (50% w/v HPCD reconstitution (3 mL aliquot), 1N NaOH 70 μL, pH 6.15, oritavancin 55.72 mg/mL): Clear, colorless solution
- Observations (50% w/v HPCD reconstitution (3 mL aliquot), 1N NaOH 75 μL, pH 6.20, oritavancin 55.61 mg/mL): Clear, colorless solution
- Observations (50% w/v HPCD reconstitution (3 mL aliquot), 1N NaOH 80 μL, pH 6.23, oritavancin 55.50 mg/mL): Clear, colorless solution
- Observations (50% w/v HPCD reconstitution (3 mL aliquot), 1N NaOH 85 μL, pH 6.34, oritavancin 55.39 mg/mL): Clear, colorless solution
- Observations (50% w/v HPCD reconstitution (3 mL aliquot), 1N NaOH 90 μL, pH 6.32, oritavancin 55.28 mg/mL): Clear, colorless solution
- Observations (50% w/v HPCD reconstitution (3 mL aliquot), 1N NaOH 95 μL, pH 6.38, oritavancin 55.17 mg/mL): Clear, colorless solution
- Observations (50% w/v HPCD reconstitution (3 mL aliquot), 1N NaOH 100 μL, pH 6.46, oritavancin 55.07 mg/mL): Clear, colorless solution.
- Observations (50% w/v HPCD reconstitution (3 mL aliquot), 1N NaOH 105 μL, pH 6.57, oritavancin 54.95 mg/mL): Clear, colorless solution
- Observations (50% w/v HPCD reconstitution (3 mL aliquot), 1N NaOH 110 μL, pH 6.59, oritavancin 54.84 mg/mL): Clear, colorless solution
- Observations (50% w/v HPCD reconstitution (3 mL aliquot), 1N NaOH 115 μL, pH 6.71, oritavancin 54.73 mg/mL): Clear, colorless solution
- Observations (50% w/v HPCD reconstitution (3 mL aliquot), 1N NaOH 120 μL, pH 6.70, oritavancin 54.61 mg/mL): Clear, colorless solution
- Observations (50% w/v HPCD reconstitution (3 mL aliquot), 1N NaOH 125 μL, pH 6.75, oritavancin 54.50 mg/mL): Clear, colorless solution.
- Observations (50% w/v HPCD reconstitution (3 mL aliquot), 1N NaOH 130 μL, pH 6.90, oritavancin 54.38 mg/mL): Clear, colorless solution
- Observations (50% w/v HPCD reconstitution (3 mL aliquot), 1N NaOH 135 μL, pH 6.90, oritavancin 54.26 mg/mL): Clear, colorless solution
- Observations (50% w/v HPCD reconstitution (3 mL aliquot), 1N NaOH 140 μL, pH 6.96, oritavancin 54.14 mg/mL): Clear, colorless solution.
